For data set [1], the target named is T1, Sodium/glucose cotransporter 1 (Homo sapiens, UniProt P13866).
T1 sequence (P13866 whole entry): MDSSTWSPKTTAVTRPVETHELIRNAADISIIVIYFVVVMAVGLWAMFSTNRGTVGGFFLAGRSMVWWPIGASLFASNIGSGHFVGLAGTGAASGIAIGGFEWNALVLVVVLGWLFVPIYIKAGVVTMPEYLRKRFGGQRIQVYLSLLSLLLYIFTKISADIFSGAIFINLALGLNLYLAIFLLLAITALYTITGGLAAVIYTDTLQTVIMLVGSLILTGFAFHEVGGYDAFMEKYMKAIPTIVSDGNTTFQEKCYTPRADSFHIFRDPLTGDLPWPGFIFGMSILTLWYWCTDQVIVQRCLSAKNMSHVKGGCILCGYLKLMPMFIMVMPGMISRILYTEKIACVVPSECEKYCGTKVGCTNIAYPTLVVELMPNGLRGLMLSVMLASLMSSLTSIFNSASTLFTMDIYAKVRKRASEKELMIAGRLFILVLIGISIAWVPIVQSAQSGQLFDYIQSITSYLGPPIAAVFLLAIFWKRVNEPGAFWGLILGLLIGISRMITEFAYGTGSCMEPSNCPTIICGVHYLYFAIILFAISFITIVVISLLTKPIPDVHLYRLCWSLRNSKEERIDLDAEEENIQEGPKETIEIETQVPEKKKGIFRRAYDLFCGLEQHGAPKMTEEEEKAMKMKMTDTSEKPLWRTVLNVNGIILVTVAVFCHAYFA
The data set can be described thus: Inhibition of human SGLT1 expressed in CHOK1 cells assessed as reduction in Na-dependent [14C]-methyl-alpha-D-glucopyranoside uptake after 30 mins by microbeta counting method. The class given is cell-based.

Data set [2] deals with T2, Sodium/glucose cotransporter 2 (Homo sapiens, UniProt P31639).
T2 sequence (P31639 whole entry): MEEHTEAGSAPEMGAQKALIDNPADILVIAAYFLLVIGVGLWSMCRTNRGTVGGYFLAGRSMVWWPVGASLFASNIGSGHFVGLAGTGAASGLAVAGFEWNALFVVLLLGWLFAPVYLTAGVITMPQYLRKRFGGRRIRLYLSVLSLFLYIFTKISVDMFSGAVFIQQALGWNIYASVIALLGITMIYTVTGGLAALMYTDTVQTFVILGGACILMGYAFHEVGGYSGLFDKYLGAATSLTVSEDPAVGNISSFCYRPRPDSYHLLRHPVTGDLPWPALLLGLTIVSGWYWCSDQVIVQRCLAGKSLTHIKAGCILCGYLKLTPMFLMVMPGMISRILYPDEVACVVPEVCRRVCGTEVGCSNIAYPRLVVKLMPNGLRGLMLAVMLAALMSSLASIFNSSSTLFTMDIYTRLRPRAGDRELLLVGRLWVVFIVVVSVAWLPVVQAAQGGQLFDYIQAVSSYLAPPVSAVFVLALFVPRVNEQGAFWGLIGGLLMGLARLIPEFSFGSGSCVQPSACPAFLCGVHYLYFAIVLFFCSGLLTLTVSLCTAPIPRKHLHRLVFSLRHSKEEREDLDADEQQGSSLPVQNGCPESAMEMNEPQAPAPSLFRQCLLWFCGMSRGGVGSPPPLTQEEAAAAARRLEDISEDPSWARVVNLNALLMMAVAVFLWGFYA
The data set can be described thus: Inhibition of human SGLT2 expressed in CHOK1 cells assessed as reduction in Na-dependent [14C]-methyl-alpha-D-glucopyranoside uptake after 1 hr by microbeta counting method. The class given is cell-based.

Data set [3] can be described thus: Total clearance in Sprague-Dawley rat at 2 mg/kg, iv administered as single dose by LC-MS analysis. The class given is ADME, organism-based. The conditions noted are these: in vivo.
Data set [4] can be described thus: Cmax in Sprague-Dawley rat at 1 mg/kg, po administered as single dose by LC-MS analysis. The class given is ADME, organism-based. Also noted: dose 1 mg/kg, route oral. The conditions noted are these: in vivo.
A short description of data set [5]: Terminal half life in Sprague-Dawley rat at 2 mg/kg, iv administered as single dose by LC-MS analysis. The class given is ADME, organism-based. The conditions noted are these: in vivo, read-out: beta t1/2 (converted).
Data set [6] concerns Rattus norvegicus. The data set can be described thus: Hypoglycemic effect in Sprague-Dawley rat assessed as reduction in blood glucose AUC (0 to 2 hrs) pretreated orally followed by glucose challenge by OGTT. The class given is functional, organism-based.
Data set [7] concerns Rattus norvegicus. Kind of data set: Hypoglycemic effect in Sprague-Dawley rat assessed as reduction in blood glucose AUC (0 to 2 hrs) at 0.1 mg/kg, po pretreated followed by glucose challenge by OGTT relative to control. The class given is functional. Also noted: scale not given: the % may be the effect or the level left.
In data set [8] the test system is Rattus norvegicus. Kind of data set: Hypoglycemic effect in Sprague-Dawley rat assessed as reduction in blood glucose AUC (0 to 2 hrs) at 1 mg/kg, po pretreated followed by glucose challenge by OGTT relative to control. Also noted: scale not given: the % may be the effect or the level left. The class given is functional.
The nature of data set [9]: Tmax in Sprague-Dawley rat at 1 mg/kg, po administered as single dose by LC-MS analysis. The class given is ADME, organism-based. The conditions noted are these: in vivo.
Data set [10] in a line: Permeability of the compound at 50 uM after 24 hrs at pH 7.4 by PAMPA. The class given is ADME. The note with it: read-out: permeability. (In general: The PAMPA barrier holds no transporters, so it reflects passive diffusion.)
Data set [11] relates to Rattus norvegicus. Kind of data set: In vivo inhibition of SGLT2 Sprague-Dawley rat assessed as increase in urinary glucose excretion at 0.1 to 0.3 mg/kg, po bid for 4 days followed by glucose challenge on day 5. The class given is functional, organism-based.
Data set [12] is described as follows: Oral bioavailability in Sprague-Dawley rat at 1 mg/kg administered as single dose by LC-MS analysis. The class given is ADME, organism-based. The note with it: in vivo.
The nature of data set [13]: Volume of distribution at steady state in Sprague-Dawley rat at 2 mg/kg, iv administered as single dose by LC-MS analysis. The class given is ADME, organism-based. The note with it: in vivo, read-out: Vdss.
Data set [14] has as its system Rattus norvegicus. The data set can be described thus: Hypoglycemic effect in Sprague-Dawley rat assessed as reduction in blood glucose AUC (0 to 2 hrs) at 0.3 mg/kg, po pretreated followed by glucose challenge by OGTT relative to control. The class given is functional. Also noted: scale not given: the % may be the effect or the level left.

The source made the active and inactive calls. The calls are words filed in the database; no cut-off is given here.

The IC50 is the concentration that inhibits the measured activity by half. As a reminder, the clearance is the rate of elimination divided by the concentration. In general, Cmax refers to the maximum level reached in the sampled fluid or tissue. As usually defined, the Tmax is the time at which the peak concentration occurs. The term bioavailability denotes the share of a dose that reaches the circulation, judged against a reference dose that is usually intravenous.

Turning to `Cc1cc(O)c([C@@H]2S[C@H](CO)[C@@H](O)[C@H](O)[C@H]2O)cc1Cc1ccc(CCCC(=O)NC(C)(CO)CO)cc1`, the IC50 was 22 nM in data set [1] and 5 nM in data set [2].
On to `Cc1cc(O)c([C@@H]2O[C@H](CO)[C@@H](O)[C@H](O)[C@H]2O)cc1Cc1ccc(CCNC(=O)NC(C)(C)CO)cc1`, for which, in [2], the half-inhibitory concentration (IC50) came out at 4 nM.
On the same count and under the same terms, in the case of `CCc1ccc(Cc2cc([C@@H]3S[C@H](CO)[C@@H](O)[C@H](O)[C@H]3O)c(O)cc2C)cc1` it was 2 nM.
For the compound `Cc1cc(O)c([C@@H]2S[C@H](CO)[C@@H](O)[C@H](O)[C@H]2O)cc1Cc1ccc(CCCC(=O)NC(C)(C)C(N)=O)cc1`, the IC50 amounted to 47 nM in data set [1] and 4 nM in data set [2].
Taken in the same sequence, the figures for `Cc1cc(O)c([C@@H]2S[C@H](CO)[C@@H](O)[C@H](O)[C@H]2O)cc1Cc1ccc(OC(C)C)cc1` were 414 nM and 3 nM.
`CCOc1ccc(Cc2cc([C@@H]3S[C@H](CO)[C@@H](O)[C@H](O)[C@H]3O)c(O)cc2C)cc1`: the IC50 in data set [1] stood at 162 nM; in data set [2], 3 nM.
Taken in the same sequence, the figures for `Cc1cc(O)c([C@@H]2O[C@H](CO)[C@@H](O)[C@H](O)[C@H]2O)cc1Cc1ccc(CCCC(=O)NC(C)(C)C(N)=O)cc1` were 51 nM and 7 nM.
Take `Cc1cc(O)c([C@@H]2O[C@H](CO)[C@@H](O)[C@H](O)[C@H]2O)cc1Cc1ccc(CCCC(=O)NC(CO)(CO)CO)cc1`: the IC50 in data set [1] was found to be 35 nM.
As to `Cc1cc(O)c([C@@H]2S[C@H](CO)[C@@H](O)[C@H](O)[C@H]2O)cc1Cc1ccc(CCCC(=O)NC(CO)(CO)CO)cc1`, the IC50 in [1] was 35 nM; in [2] it was 9 nM.
Taken in the same sequence, the figures for `Cc1ccc(Cc2cc([C@@H]3S[C@H](CO)[C@@H](O)[C@H](O)[C@H]3O)c(O)cc2C)cc1` were 25 nM and 2 nM.
In the case of `Cc1cc(O)c([C@@H]2O[C@H](CO)[C@@H](O)[C@H](O)[C@H]2O)cc1Cc1ccc(CCCC(=O)NC(C)(CO)CO)cc1`, the IC50 in data set [1] was found to be 32 nM.
Consider `COc1ccc(Cc2cc([C@@H]3S[C@H](CO)[C@@H](O)[C@H](O)[C@H]3O)c(O)cc2C)cc1`, for which the IC50 in [1] came to 65 nM.
In the case of `Cc1cc(O)c([C@@H]2O[C@H](CO)[C@@H](O)[C@H](O)[C@H]2O)cc1Cc1ccc(CCNC(=O)NC(CO)(CO)CO)cc1`, in data set [3], the clearance is 18 mL/min/kg. For the same compound, the peak level in data set [4] (Cmax) was 1.46 ng/mL. For the same compound, the figures for the IC50 in data set [1] and in [2] were 28 nM and 7 nM, respectively. Also, the half-life in data set [5] is 21.7 min. In addition, the Activity entry in the data set with Rattus norvegicus [6] is “Dose-dependent effect”; in the data set on Rattus norvegicus [7] it was 31.5%; in the data set on Rattus norvegicus [8], 62.2%; in the data set on Rattus norvegicus [14], 58.5%. The Tmax in [9] was 15 min. Also, the Papp at 24 h, 50 µM in [10] was 0.3 ×10⁻⁶ cm/s. For the same compound, in the data set with Rattus norvegicus [11], the inhibition entry was “inactive”. This compound returned a bioavailability in data set [12] of 0.05%. In addition, the Vd in data set [13] amounted to 0.439 L/kg.
As for `Cc1cc(O)c([C@@H]2O[C@H](CO)[C@@H](O)[C@H](O)[C@H]2O)cc1Cc1ccc(CCCNC(=O)N2CCN(C)CC2)cc1`, the IC50 stood at 764 nM in [1] and 5 nM in data set [2].
For `Cc1cc(O)c([C@@H]2O[C@H](CO)[C@@H](O)[C@H](O)[C@H]2O)cc1Cc1ccc(CCCNC(=O)NC(C)(C)CO)cc1`, the IC50 in data set [2] is 5 nM.
The same measure, in the same setting: in the case of `Cc1cc(O)c([C@@H]2O[C@H](CO)[C@@H](O)[C@H](O)[C@H]2O)cc1Cc1ccc(CCCNC(=O)NC(CO)(CO)CO)cc1` it was 7 nM.

The values above are taken from ChEMBL document CHEMBL4265985, “Discovery of a potent, low-absorbable sodium-dependent glucose cotransporter 1 (SGLT1) inhibitor (TP0438836) for the treatment of type 2 diabetes” (Bioorg Med Chem Lett, 2018).
